Measured values reported in patent publication US11174177B2, “Systems and methods for controlling aquatic pests with sulfurous acid” (priority 2017, dated 2021).

Assays:
[1] = system: clams; details: sulfuric acid and low pH, previously found; cited from earlier work
[2] = system: bryozoa; experiment: Open-water pond treatment, mortality of bryozoa; type: in vivo
Procedure: (§1) Applicant have performed studies and determined that the present water treatment methods with sulfurous acid provide about 100% kill of bryozoa in 48 hours, 100% kill of zebra mussels in 5 days, and 100% kill of Asiatic clams in less than one month. In these studies, the protocols introduced sulfurous acid into open water to achieve water pH levels between 6.0 and 6.5 in the treatment water within a control distance from the location of introduction. Accordingly, these pH ranges are sufficient to control these aquatic species. This allows these relatively higher pH ranges to control the aquatic species without compromising the body of water. The cyanobacteria can have a 100% kill from the sulfurous acid with a pH of the treated water between 6-7, or more preferably between 6.8-7.
(§2) In view of the disclosure provided herein, it is now possible to achieve about 100% kill rates on these aquatic pest species in any size body of water at ambient temperature and pressure. The water treatment is performed through the addition of sufficient sulfurous acid (as well as any sulfites and bisulfites in the sulfurous acid) so as to reduce pH between about 6.0-about 6.5 over hours to days to weeks. […] The mortality of each aquatic pest was measured progressively over time until all the aquatic pests in the pond were determined to be dead or at a level so low as to be unmeasurable.

[3] = system: zebra mussels; experiment: Open-water pond treatment, mortality of zebra mussels; type: in vivo
Procedure: as §1, §2

[4] = system: Asiatic clams; experiment: Open-water pond treatment, mortality of Asiatic clams; type: in vivo
Procedure: as §1, §2

[5] = system: cyanobacteria; experiment: Treatment of Daybreak reservoirs infested with cyanobacteria; type: in vivo
From the text: (§3) As a control, Jordan Canal water, which was infected with cyanobacteria from Utah Lake, is directed to Daybreak and other areas. While treatment controlled cyanobacteria in Daybreak reservoirs, other areas that receive water from the Jordan Canal were still testing positive for cyanobacteria. As such, the treatment of sulfurous acid controlled the cyanobacteria in view of water ways further away (e.g., Blackridge Reservoir, Jordan River Narrows, and Wheeler Farm East Canal) still containing cyanobacteria. […] Since cyanobacteria are harmful to fish, the sulfurous acid actually improves the health of fish in the treated water.

[6] = system: anatoxin-a; experiment: Cyanotoxin in treated Daybreak reservoirs; design: species or system cyanobacteria; details: Daybreak reservoirs (surge pond), pH maintained between 6.8-7
From the text: as §3

[7] = system: fish or other animals; type: in vivo; details: Daybreak reservoirs, pH maintained between 6.8-7
From the text: as §3

[8] = system: algae; experiment: Removal of algae from treated water; type: in vivo; details: pH 6.5
From the text: In one example, pH 6.5 removed algae in 15 days.

[9] = system: aquatic pests; experiment: Water treatment, control of aquatic pests in general; type: in vivo
From the text: Thus, sulfurous acid can be used to treat water to control existing aquatic pest as well as condition the water to inhibit spreading of any aquatic pests introduced therein. This can inhibit spreading from a first body of water to a second body of water, such as from a pond to a stream or from a stream into a pond. While providing the sulfurous acid prohibits or prevents aquatic pest infestations or can be used as a prophylactic against aquatic pest infestations, application to the water can be done for the desire to control any aquatic pest in the water or soil in contact with the water (e.g., river bed, pond bed, shore, or other soil in direct contact with the water), or that may come into contact therewith. Also, the sulfurous acid can treat the surfaces of any water system or any surface of any object in the water to inhibit aquatic pest from attaching thereto, remove the aquatic pests from the surface (e.g., descale) or otherwise inhibit the aquatic pest from contaminating the water system. Thus, it may be desirable to apply the sulfurous acid to a water or soil contacting the water or structure confining the water as desired.
Thus, exhaust products from burning sulfur and reaction products of the exhaust products (e.g., reaction products from reacting sulfur dioxide with water or reacting other sulfur-containing substance in the exhaust with water) and water can be used to control the aquatic pets. In one aspect, sulfuric acid is specifically not used in the methods described herein.
Thus, introducing the exhaust products from burning sulfur that has sulfur dioxide (e.g., exhaust directly from a sulfur burn chamber) and reaction products of the exhaust products and water may reduce the calcium in the water in order to control the pests. This may include reducing the overall free calcium level, such as reducing carbonate and bicarbonate levels. In one aspect, the ability of sulfurous acid to degrade carbonates and bicarbonates may contribute to the ability of the present technology controlling pests. […] As referred to herein, the exhaust products include sulfur dioxide and possibly other sulfur-containing substances that are obtained directly from a sulfur burner that burns elemental sulfur.
Treatment can provide clarified water from murky water having one or more of these aquatic pests.

[10] = inoculated aquatic pond, pH about 6.0-about 6.5, no time stated

| Compound | kill of clams [1] | kill of bryozoa ([2]; in 48 hours, open water, pH between 6.0 and 6.5) | kill of bryozoan [2, 10] | kill of zebra mussels ([3]; in 5 days, open water, pH between 6.0 and 6.5) [%] | kill of zebra mussels [3, 10] | kill of Asiatic clams ([4]; in less than one month, open water, pH between 6.0 and 6.5) [%] | kill of Asiatic clams [4, 10] | time until free of cyanobacteria ([5]; Daybreak reservoirs (surge pond), pH maintained between 6.8-7) [weeks] | detection of cyanobacteria after treatment ([5]; Daybreak reservoirs, untreated Jordan Canal areas still positive) | cyanobacteria in waterways downstream from the Daybreak reservoirs ([5]; downstream of treated reservoirs) | kill of cyanobacteria ([5]; pH of the treated water between 6-7, more preferably 6.8-7) [%] | time until free of anatoxin-a [6] [weeks] | kill of non-target fish or other animals [7] | time to removal of algae [8] [days] | effect on algae, bacteria, zebra mussel, Asian clam, apple snail, American crab, crayfish, Bryozoans ([9]; in vivo) | kill rates in the aquatic pests ([9]; open and contained water) [%] | effectiveness in controlling aquatic pests versus sulfuric acid ([9]; pH reduced to 7.1 with sulfurous acid versus pH 3.0 with sulfuric acid) | aquatic pest count ([9]; preliminary testing, applied to water having aquatic pest) |
| --- | --- | --- | --- | --- | --- | --- | --- | --- | --- | --- | --- | --- | --- | --- | --- | --- | --- | --- |
| O=S(=O)(O)O [sulfuric acid] | kill the clams, but only in some cases |  |  |  |  |  |  |  |  |  |  |  |  |  |  |  |  |  |
| sulfurous acid |  | about 100% | about 100% | 100 | about 100% | 100 | about 100% | ≤ 2 | non-detect | free of cyanobacteria | 100 | ≤ 2 | no fish or other animals were determined to be killed | 15 | reduce | 100 | more effective | reduces the aquatic pest count |
